We go through 25 compounds from ChEMBL document CHEMBL4024723, “Design, synthesis, and biological activity of novel tetrahydropyrazolopyridone derivatives as FXa inhibitors with potent anticoagulant activity” (Bioorg Med Chem, 2017).

Experiment [1] deals with Plasma. The experiment in a line: Anticoagulant activity in human plasma assessed as concentration required to double prothrombin time. It is filed as functional.
The subject of experiment [2] is Plasma. The experiment in a line: Anticoagulant activity in human plasma assessed as concentration required to double activated partial thromboplastin time. The experiment is classed as functional.
The subject of another experiment is Rattus norvegicus. The experiment in a line: Inhibition of thrombus formation in Sprague-Dawley rat at 10 mg/kg, po after 2 hrs relative to control. It is filed as functional.
The test system of experiment [3] is Plasma. The experiment in a line: Anticoagulant activity in rabbit plasma assessed as concentration required to double activated partial thromboplastin time. It is filed as functional, Oryctolagus cuniculus.
Experiment [4] has as its target T1, Coagulation factor X (Homo sapiens, UniProt P00742). The experiment can be described thus: Inhibition of human F10a assessed as decrease in p-nitroaniline cleavage from pefachrome F10a at 0.5 uM preincubated for 10 mins followed by substrate addition measured after 20 mins relative to control.
Experiment [5] deals with T1, Coagulation factor X. The experiment can be described thus: Inhibition of human F10a assessed as decrease in p-nitroaniline cleavage from pefachrome F10a at 5 uM preincubated for 10 mins followed by substrate addition measured after 20 mins relative to control.
The target in experiment [6] is T1, Coagulation factor X. The experiment can be described thus: Inhibition of human F10a assessed as decrease in p-nitroaniline cleavage from pefachrome F10a preincubated for 10 mins followed by substrate addition measured after 20 mins.
Experiment [7] has as its system Plasma. The experiment in a line: Anticoagulant activity in rabbit plasma assessed as concentration required to double prothrombin time. The experiment is classed as functional, Oryctolagus cuniculus.

Structures are written as SMILES.

T1 sequence (P00742 41-179 limits assumed): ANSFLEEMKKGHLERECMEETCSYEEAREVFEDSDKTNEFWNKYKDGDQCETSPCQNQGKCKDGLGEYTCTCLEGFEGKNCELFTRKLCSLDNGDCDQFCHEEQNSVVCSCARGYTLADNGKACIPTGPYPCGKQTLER
T1 sequence (P00742 235-488 limits assumed): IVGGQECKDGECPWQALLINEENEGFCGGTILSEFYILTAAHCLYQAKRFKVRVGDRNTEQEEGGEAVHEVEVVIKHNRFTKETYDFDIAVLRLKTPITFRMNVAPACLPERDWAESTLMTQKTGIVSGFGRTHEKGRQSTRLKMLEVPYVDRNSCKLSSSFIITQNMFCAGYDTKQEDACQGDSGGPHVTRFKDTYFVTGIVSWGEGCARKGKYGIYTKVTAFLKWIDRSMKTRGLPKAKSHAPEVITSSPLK

As to `COc1ccc(-n2nc(-n3cnnc3CN3CCOCC3)c3c2C(=O)N(c2ccc(N4CCCCC4=O)cc2)CC3)cc1`, the 2PT with Plasma [1] turned out to be 0.5 µM; with Plasma [7], 0.9 µM. Besides, the 2aPTT in the experiment on Plasma [2] turned out to be 0.7 µM; in the experiment with Plasma [3] it was 1.2 µM. Moreover, the inhibition in vivo at 10 mg/kg in the experiment with Rattus norvegicus worked out at 98%. Besides, the inhibition on Coagulation factor X [4] worked out at 94.5%; at Coagulation factor X [5] it was 99%. Further, the half-maximal inhibitory concentration (IC50) on Coagulation factor X [6] turned out to be 140 nM.

Consider `COc1ccc(-n2nc(Cn3nnc4ccccc43)c3c2C(=O)N(c2ccc(N4CCCCC4=O)cc2)CC3)cc1`, for which the values for the 2PT in the experiment on Plasma [1] and in the experiment on Plasma [7] were 25.2 µM and 29.4 µM, respectively. The 2aPTT was found to be 31.6 µM with Plasma [2] and 39.1 µM with Plasma [3].

Consider `COc1ccc(-n2nc(C3=NCCCCN3)c3c2C(=O)N(c2ccc(N4CCCCC4=O)cc2)CC3)cc1`, for which the 2PT in the experiment with Plasma [1] is 10.9 µM; in the experiment on Plasma [7] it was 12.1 µM. The 2aPTT in the experiment with Plasma [2] is 24.3 µM; in the experiment with Plasma [3] it was 26.9 µM.

With `COc1ccc(-c2ncn(Cc3nn(-c4ccc(OC)cc4)c4c3CCN(c3ccc(N5CCCCC5=O)cc3)C4=O)n2)cc1`, the 2PT in the experiment with Plasma [1] came out at 0.8 µM; in the experiment with Plasma [7] it was 1.2 µM. In addition, the values for the 2aPTT in the experiment with Plasma [2] and in the experiment with Plasma [3] were 1.1 µM and 1.7 µM, respectively. For the same compound, the inhibition at Coagulation factor X [4] was 66.1%; at Coagulation factor X [5], 76.4%.

Consider `COc1ccc(-n2nc(-n3cnnn3)c3c2C(=O)N(c2ccc(N4CCCCC4=O)cc2)CC3)cc1`, for which the 2PT in the experiment with Plasma [1] is 4.2 µM; in the experiment with Plasma [7], 5.7 µM. For the same compound, the 2aPTT in the experiment with Plasma [2] stood at 7.3 µM; in the experiment on Plasma [3], 8.2 µM.

For `COc1ccc(-n2nc(C(N)=O)c3c2C(=O)N(c2ccc(N4CCCCC4=O)cc2)CC3)cc1` [APIXABAN], the results for the 2PT with Plasma [1] and in the experiment with Plasma [7] were 0.8 µM and 1 µM, respectively. For the same compound, the 2aPTT was determined as 0.9 µM in the experiment on Plasma [2] and 1.4 µM in the experiment with Plasma [3]. The compound further returned an inhibition in vivo at 10 mg/kg with Rattus norvegicus of 95%.

In the case of `COc1ccc(-n2nc(Cn3ccnn3)c3c2C(=O)N(c2ccc(N4CCCCC4=O)cc2)CC3)cc1`, the 2PT in the experiment on Plasma [1] is 2.4 µM; in the experiment on Plasma [7], 2.1 µM. Besides, the 2aPTT in the experiment with Plasma [2] worked out at 3.7 µM; with Plasma [3] it was 3.9 µM.

Regarding `COc1ccc(-n2nc(Cn3cnc(-c4cccnc4)n3)c3c2C(=O)N(c2ccc(N4CCCCC4=O)cc2)CC3)cc1`, the 2PT amounted to 2 µM in the experiment with Plasma [1] and 3.2 µM in the experiment on Plasma [7]. For the same compound, the 2aPTT in the experiment on Plasma [2] worked out at 4.3 µM; in the experiment with Plasma [3], 5.2 µM.

On to `COc1ccc(-n2nc(C3=NCCN3)c3c2C(=O)N(c2ccc(N4CCCCC4=O)cc2)CC3)cc1`, for which the 2PT in the experiment on Plasma [1] is 6.2 µM; in the experiment on Plasma [7], 7.5 µM. Moreover, the 2aPTT in the experiment on Plasma [2] was determined as 11.8 µM; with Plasma [3] it was 12.5 µM.

For the compound `COc1ccc(-n2nc(-n3cnnc3)c3c2C(=O)N(c2ccc(N4CCCCC4=O)cc2)CC3)cc1`, the 2PT in the experiment on Plasma [1] was 4.9 µM; with Plasma [7], 5.7 µM. Further, the 2aPTT is 10 µM in the experiment on Plasma [2] and 13.7 µM with Plasma [3].

Take `COc1ccc(-n2nc(C3=NCCN3C)c3c2C(=O)N(c2ccc(N4CCCCC4=O)cc2)CC3)cc1`: the 2PT was 8.8 µM in the experiment with Plasma [1] and 9.6 µM in the experiment on Plasma [7]. Also, the 2aPTT in the experiment with Plasma [2] stood at 10.5 µM; with Plasma [3], 12 µM.

On to `COc1ccc(-n2nc(Cn3cc(C(N)=O)nn3)c3c2C(=O)N(c2ccc(N4CCCCC4=O)cc2)CC3)cc1`, for which the 2PT in the experiment on Plasma [1] came out at 1.4 µM; with Plasma [7], 2.1 µM. The 2aPTT turned out to be 3.1 µM with Plasma [2] and 5.2 µM with Plasma [3].

Consider `CCN(CC)Cc1nncn1-c1nn(-c2ccc(OC)cc2)c2c1CCN(c1ccc(N3CCCCC3=O)cc1)C2=O`, for which the 2PT in the experiment with Plasma [1] turned out to be 7.2 µM; in the experiment with Plasma [7], 8 µM. Also, the 2aPTT in the experiment on Plasma [2] amounted to 9.6 µM; with Plasma [3], 11.5 µM.

With `COc1ccc(-n2nc(Cn3cnc(-c4ccncc4)n3)c3c2C(=O)N(c2ccc(N4CCCCC4=O)cc2)CC3)cc1`, the 2PT in the experiment with Plasma [1] is 1.6 µM; in the experiment on Plasma [7], 1.9 µM. Moreover, the 2aPTT in the experiment with Plasma [2] is 2.3 µM; with Plasma [3] it was 2.1 µM.

For `COc1ccc(-n2nc(-n3cnnc3C)c3c2C(=O)N(c2ccc(N4CCCCC4=O)cc2)CC3)cc1`, the figures for the 2PT in the experiment on Plasma [1] and in the experiment on Plasma [7] were 1.2 µM and 1.7 µM, respectively. Further, the 2aPTT with Plasma [2] was 2.8 µM; in the experiment on Plasma [3], 3 µM. In addition, the inhibition on Coagulation factor X [4] was found to be 55.1%; at Coagulation factor X [5] it was 65.2%.

In the case of `COc1ccc(-n2nc(C3=NCCCN3)c3c2C(=O)N(c2ccc(N4CCCCC4=O)cc2)CC3)cc1`, the 2PT in the experiment on Plasma [1] was 9.4 µM; in the experiment with Plasma [7], 10.8 µM. In addition, the 2aPTT amounted to 13.5 µM in the experiment with Plasma [2] and 15.4 µM in the experiment on Plasma [3].

`COc1ccc(-n2nc(Cn3cnc(-c4ccccc4)n3)c3c2C(=O)N(c2ccc(N4CCCCC4=O)cc2)CC3)cc1`: the 2PT came to 2.4 µM in the experiment on Plasma [1] and 3.4 µM in the experiment with Plasma [7]. The 2aPTT in the experiment with Plasma [2] came to 3.6 µM; with Plasma [3], 5 µM.

In the case of `COc1ccc(-n2nc(C3=NC(C)CN3)c3c2C(=O)N(c2ccc(N4CCCCC4=O)cc2)CC3)cc1` (stereo not given), the 2PT was determined as 8.9 µM with Plasma [1] and 10 µM with Plasma [7]. In addition, the figures for the 2aPTT in the experiment with Plasma [2] and in the experiment with Plasma [3] were 14.6 µM and 17.1 µM, respectively.

`COc1ccc(-n2nc(Cn3cnc(-c4ccc(F)cc4)n3)c3c2C(=O)N(c2ccc(N4CCCCC4=O)cc2)CC3)cc1`: the figures for the 2PT in the experiment with Plasma [1] and with Plasma [7] were 0.9 µM and 2.1 µM, respectively. Further, the 2aPTT in the experiment on Plasma [2] is 2.3 µM; in the experiment on Plasma [3], 3.1 µM. The values for the inhibition on Coagulation factor X [4] and at Coagulation factor X [5] were 60.6% and 70.3%, respectively.

In the case of `COc1ccc(-n2nc(-n3cnnc3N)c3c2C(=O)N(c2ccc(N4CCCCC4=O)cc2)CC3)cc1`, the 2PT in the experiment on Plasma [1] was 4.1 µM; in the experiment with Plasma [7], 5.9 µM. For the same compound, the 2aPTT in the experiment on Plasma [2] turned out to be 8.3 µM; in the experiment on Plasma [3], 9.1 µM.

On to `COc1ccc(-n2nc(Cn3cc(C#N)nn3)c3c2C(=O)N(c2ccc(N4CCCCC4=O)cc2)CC3)cc1`, for which the 2PT with Plasma [1] turned out to be 0.7 µM; in the experiment with Plasma [7], 0.9 µM. Besides, the 2aPTT in the experiment with Plasma [2] amounted to 1 µM; with Plasma [3] it was 1.5 µM. The same compound gave an inhibition in vivo at 10 mg/kg in the experiment with Rattus norvegicus of 89%. The inhibition on Coagulation factor X [4] stood at 86.7%; at Coagulation factor X [5], 94%. Besides, at Coagulation factor X [6], the 50% inhibitory concentration (IC50) was 360 nM.

With `COc1ccc(-n2nc(Cn3cnc(-c4ccc(Cl)cc4)n3)c3c2C(=O)N(c2ccc(N4CCCCC4=O)cc2)CC3)cc1`, the figures for the 2PT with Plasma [1] and with Plasma [7] were 1.9 µM and 3.5 µM, respectively. In addition, the 2aPTT in the experiment on Plasma [2] amounted to 3.6 µM; with Plasma [3], 5 µM.

As to `COc1ccc(-n2nc(-n3cnnc3CN3CCCC3)c3c2C(=O)N(c2ccc(N4CCCCC4=O)cc2)CC3)cc1`, the 2PT in the experiment with Plasma [1] was found to be 7.6 µM; in the experiment on Plasma [7], 8.4 µM. Moreover, the 2aPTT in the experiment with Plasma [2] is 15.6 µM; in the experiment with Plasma [3], 18 µM.

Regarding `COc1ccc(-n2nc(Cn3nc(-c4ccccc4)[nH]c3=O)c3c2C(=O)N(c2ccc(N4CCCCC4=O)cc2)CC3)cc1`, the 2PT in the experiment with Plasma [1] was found to be 11.7 µM; in the experiment on Plasma [7], 12.4 µM. Also, the results for the 2aPTT with Plasma [2] and in the experiment with Plasma [3] were 27.1 µM and 29.8 µM, respectively.

As for `COc1ccc(-c2nn(Cc3nn(-c4ccc(OC)cc4)c4c3CCN(c3ccc(N5CCCCC5=O)cc3)C4=O)c(=O)[nH]2)cc1`, the 2PT was found to be 17.7 µM with Plasma [1] and 19.3 µM in the experiment on Plasma [7]. The 2aPTT turned out to be 19.5 µM with Plasma [2] and 23.2 µM in the experiment with Plasma [3].

The inhibition in vivo is the change of the read-out against control, counted positive when it falls. A lower inhibition in vivo goes with little suppression. A word on the inhibition: it is the change of the read-out against control, counted positive when it falls. As a reminder, the IC50 is the concentration that inhibits the measured activity by half.
